According to patent publication KR20110136074A, “안정한 에스-베포타스틴 함유 약학조성물 및 이의 제조방법” (이우영, priority 2010, dated 2011):

Columns and labels:
[1] = 40℃, 75% relative humidity; cited from earlier work
[2] = by moisture in additives when formulated with usual excipients and binders; cited from earlier work
[3] = Optical purity (chiral HPLC) after storage for 4 weeks at 60℃, 75% relative humidity, exposed or sealed; type: physicochemical

Compound	formation of (R)-isomer and degradation products [1]	racemization to the (R)-isomer [2]	optical purity after 4 weeks, exposed state ([3]; exposed) [%]	optical purity after 4 weeks ([3]; exposed or sealed)	optical purity after 4 weeks, sealed state ([3]; sealed) [%]
O=C(O)CCCN1CCC(O[C@@H](c2ccc(Cl)cc2)c2ccccn2)CC1.O=S(=O)(O)c1ccccc1 [(S)-베포타스틴 벤젠술폰산염]	(R)-배열의 이성체 및 분해물이 생성된다	–	–	–	–
O=C(O)CCCN1CCC(O[C@@H](c2ccc(Cl)cc2)c2ccccn2)CC1 [유상의 (S)-베포타스틴]	–	(R)-배열의 이성체로 라세미화가 일어나	95.56	95.5~97.4%	97.32
